# Laboratory results from patent US20090239880A1, “COMBINATIONS OF MONOAMINE REUPTAKE INHIBITORS AND POTASSIUM CHANNEL ACTIVATORS” (priority 2006, published 2009).
# Where a name gives a salt, the structure may show the parent alone.
# Tested on: not given
# Assay: not given
# Settings: not given
row,SMILES,melting point
1,"FC(F)(F)c1cc(Cn2c(N3CCC(Cc4ccccc4)CC3)nc3ccccc32)ccc1Cl [Example 4, 2-(4-Benzylpiperidin-1-yl)-1-[4-chloro-3-(trifluoromethyl)benzyl]-1H-benzoimidazole]",124 to 125.5 °C
2,"Fc1ccc(C(c2ccc(F)cc2)N2CCN(c3nc4ccccc4[nH]3)CC2)cc1 (as salt: hydrochloride) [Example 9, 2-{4-[Bis-(4-fluorophenyl)methyl]piperazin-1-yl}-1H-benzoimidazole]",> 240 °C (dec.)
3,"Clc1ccc(CC2CCN(c3nc4ccccc4[nH]3)CC2)cc1Cl (as salt: salt) [Example 1, 2-[4-(3,4-Dichlorobenzyl)piperidin-1-yl]-1H-benzoimidazole]",268 to 270 °C
4,"c1ccc(CC2CCN(c3nc4ccccc4[nH]3)CC2)cc1 [Example 2, 2-(4-Benzylpiperidin-1-yl)-1H-benzoimidazole]",193 to 194 °C
5,"c1ccc(C(c2ccccc2)N2CCN(c3nc4ccccc4[nH]3)CC2)cc1 [Example 6, 2-(4-Benzhydrylpiperazin-1-yl)-1H-benzoimidazole]",> 230 °C (dec.)
6,"Clc1ccc(OC2CCN(c3nc4ccccc4[nH]3)CC2)cc1Cl (as salt: hydrochloride) [Example 10, 2-[4-(3,4-Dichlorophenoxy)piperidin-1-yl]-1H-benzoimidazole]",297 to 298 °C

# The remaining lines, values ahead:
row,melting point,SMILES
1,229 to 230 °C,"c1ccc(C(=C2CCN(c3nc4ccccc4[nH]3)CC2)c2ccccc2)cc1 [Example 12, 2-(4-Benzhydrylidene-piperidin-1-yl)-1H-benzoimidazole]"
2,155 to 155.5 °C,"Fc1ccc(Cn2c(N3CCC(Cc4ccccc4)CC3)nc3ccccc32)cc1F [Example 5, 2-(4-Benzylpiperidin-1-yl)-1-(3,4-difluorobenzyl)-1H-benzoimidazole]"
3,237 to 239 °C,"OC(c1ccccc1)(c1ccccc1)C1CCN(c2nc3ccccc3[nH]2)CC1 [Example 3, [1(1H-Benzoimidazol-2-yl)-piperidin-4-yl]diphenylmethanol]"
4,256 to 258 °C,"c1ccc(C(c2ccccc2)C2CCN(c3nc4ccccc4[nH]3)CC2)cc1 [Example 13, 2-(4-Benzhydryl-piperidin-1-yl)-1H-benzoimidazole]"

# Biological target: SK3 channels (Homo sapiens, UniProt Q9UGI6)
# Assay: inhibition of SK3 channels in patchclamp electrophysiology (selectivity over monoamine reuptake in vitro)
# Format: cell-based
# Settings: patchclamp electrophysiology vs [3H]DA, [3H]5-HT and [3H]NA reuptake in vitro
row,SMILES,"selectivity for inhibition of SK3 channels over inhibiton of [3H]DA, [3H]5-HT and [3H]NA reuptake"
1,"N=c1n(Cc2ccc(F)c(F)c2)c2ccccc2n1Cc1ccc(F)c(F)c1 [test compound, 1,3-Bis-(3,4-difluoro-benzyl)-1,3-dihydro-benzoimidazol-2-ylideneamine]",more than 100 fold

# Tested on: NMRI mice
# Assay: reversal of tetrabenazine-induced ptosis
# Format: in vivo
# Settings: test compound 0.3-3 mg/kg i.p. combined with sub-threshold reboxetine 0.1 mg/kg p.o. at -60 min, tetrabenazine 40 mg/kg i.p. at -30 min
# Method: Method: Mice were administered the test compound (0.3-3 mg/kg, i.p.) and reboxetine (0.1 mg/kg, p.o.) at timepoint −60 min, followed by tetrabenazine (40 mg/kg, i.p., −30 min). The presence of ptosis was then scored by a trained observer using a recognised rating scale: maximum score/mouse=4, minimum score/mouse=0.
row,SMILES,effect on ability of reboxetine to reverse tetrabenazine-induced ptosis (ptosis score)
1,"N=c1n(Cc2ccc(F)c(F)c2)c2ccccc2n1Cc1ccc(F)c(F)c1 [test compound, 1,3-Bis-(3,4-difluoro-benzyl)-1,3-dihydro-benzoimidazol-2-ylideneamine]",enhanced the ability of the latter to reverse tetrabenazine-incuced ptosis

# Tested on: NMRI mice
# Assay: nialamide induced 5-HT syndrome paradigm
# Format: in vivo
# Settings: nialamide 50 mg/kg s.c. at -120 min, test compound 0.3-3 mg/kg i.p. combined with sub-threshold citalopram 1 mg/kg p.o. at 0 min
# Method: Method: Mice were administered nialamide (50 mg/kg, s.c., −120 min) followed by the test compound (0.3-3 mg/kg, i.p.) and citalopram (1 mg/kg, p.o) at time-point 0 min. The presence of head twitches, hindlimb abduction, head weaving, and piano playing behaviours were then scored by a trained observer using a recognised rating scale: maximum score/mouse=4, minimum score/mouse=0.
row,SMILES,effect on ability of citalopram to induce symptoms analagous to the serotonin syndrome (5-HT syndrome score)
1,"N=c1n(Cc2ccc(F)c(F)c2)c2ccccc2n1Cc1ccc(F)c(F)c1 [test compound, 1,3-Bis-(3,4-difluoro-benzyl)-1,3-dihydro-benzoimidazol-2-ylideneamine]",enhanced the ability of the latter to induce symptoms analagous to the serotonin syndrome
